Assay results as given in patent publication US4568545A, “Thrombolytic agent” (Amano Seiyaku Kabushiki Kaisha, priority 1982, dated 1986).

System: thrombi formed from blood of a healthy adult
Test: Thrombolytic activity by the Chandler's loop method
Type: biochemical, human
Details: 60 minutes, 37° C.
Protocol: Determination of the thrombolytic activity by the Chandler's loop method: the test solution and control solution were prepared by dissolving the protease and urokinase (a product by Otsuka Seiyaku Co.), respectively, in a physiological saline solution. […] The reference solution for the blank test was the physiological saline solution.
Formation of thrombi and measurement of the dissolution thereof were performed in the following manner. Thus, 0.8 ml of the above obtained fresh blood admixed with sodium citrate and 0.1 ml of a 3% aqueous solution of calcium chloride as CaCl2 ·2H2 O were introduced into a tube of polyvinyl chloride resin having an inner diameter of 3 mm and a length of 250 mm and the ends of the tube were connected to each other to form a loop which was put coaxially on a turntable inclined at an angle of 60° and rotated at 37° C. for 30 minutes at a velocity of 17 r.p.m. to form thrombi therein. Thereafter, 0.1 ml of one of the protease solutions, the urokinase solution or the reference solution was introduced into the loop which was rotated under the same conditions as above for 60 minutes. The thrombi remaining in the tube were then taken out and, after fixing with a Bouin's reagent, i.e. a solution prepared by adding 25 ml of a commercially available formalin solution and 5 ml of glacial acetic acid to 75 ml of a saturated aqueous solution of picric acid, the weight of the wet thrombi was measured.

Substance: Urokinase
- % Thrombolysis (concentration in blood 50 Iu/ml blood): 8.0%
- % Thrombolysis (concentration in blood 100 Iu/ml blood): 39.8%
- % Thrombolysis (concentration in blood 150 Iu/ml blood): 49.7%
- % Thrombolysis (concentration in blood 200 Iu/ml blood): 60.3%
- % Thrombolysis (concentration in blood 250 Iu/ml blood): 66.4%
